Read-outs that look alike come from different tables or passages of the source.

For test [1], the target named is T1, human NPR1 (Homo sapiens, UniProt P16066).
T1 construct: host or cells: CHO-K1
T1 sequence (P16066 33-1061): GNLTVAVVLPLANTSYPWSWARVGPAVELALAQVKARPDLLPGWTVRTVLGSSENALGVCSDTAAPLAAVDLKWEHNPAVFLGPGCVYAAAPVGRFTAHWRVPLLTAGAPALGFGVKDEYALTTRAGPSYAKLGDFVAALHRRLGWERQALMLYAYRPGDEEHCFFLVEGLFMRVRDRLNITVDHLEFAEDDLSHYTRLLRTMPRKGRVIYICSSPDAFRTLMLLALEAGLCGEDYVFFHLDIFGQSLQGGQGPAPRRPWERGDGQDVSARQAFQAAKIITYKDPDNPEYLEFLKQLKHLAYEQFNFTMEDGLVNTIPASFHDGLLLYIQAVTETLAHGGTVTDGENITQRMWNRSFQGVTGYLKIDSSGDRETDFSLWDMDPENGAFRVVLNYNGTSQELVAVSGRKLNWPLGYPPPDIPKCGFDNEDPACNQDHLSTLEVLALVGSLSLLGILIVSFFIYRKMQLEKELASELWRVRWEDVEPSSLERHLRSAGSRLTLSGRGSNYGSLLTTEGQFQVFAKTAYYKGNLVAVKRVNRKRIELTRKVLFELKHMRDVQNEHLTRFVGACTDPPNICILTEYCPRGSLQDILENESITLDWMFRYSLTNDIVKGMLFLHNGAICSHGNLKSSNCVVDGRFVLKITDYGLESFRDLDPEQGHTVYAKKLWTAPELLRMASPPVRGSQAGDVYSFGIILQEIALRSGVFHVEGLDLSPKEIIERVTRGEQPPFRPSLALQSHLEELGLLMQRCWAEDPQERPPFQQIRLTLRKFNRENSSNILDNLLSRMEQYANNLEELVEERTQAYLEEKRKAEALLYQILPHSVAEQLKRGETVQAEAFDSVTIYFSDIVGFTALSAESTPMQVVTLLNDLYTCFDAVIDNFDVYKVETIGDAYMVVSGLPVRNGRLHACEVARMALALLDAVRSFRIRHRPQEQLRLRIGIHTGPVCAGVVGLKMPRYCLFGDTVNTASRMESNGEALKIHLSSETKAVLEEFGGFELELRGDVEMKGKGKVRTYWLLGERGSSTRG
Briefly: Cellular cGMP production assay, human NPR1 expressing CHO-K1 cells (CisBio HTRF). Format: cell-based. To be noted: for AC50: cGMP production, 30 min at 37° C., 12-point dose-response from 30 μM; for Human NPR1 Amax (% of ANP): maximum cGMP production as percentage of the maximum cGMP produced with ANP. The method in brief: (§1)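 12-pt 3-fold dose-response, top 30 μM; buffer PBS + 0.1% BSA + 1 mM IBMX (PDE inhibitor); 30 min, 37 °C. Lyse, add cGMP-d2 + anti-cGMP-cryptate, 1 h RT. Ex 317 / em 665 nm; Delta F converted to cGMP via calibrator standard curve.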
For orientation: In TR-FRET formats the signal depends on donor and acceptor labels being close together.

In test [2] the target is monkey NPR1 (Macaca fascicularis, UniProt A0A7N9DBT9). Briefly: Cellular cGMP production assay, monkey NPR1 expressing CHO-K1 cells (CisBio HTRF). Type of test: cell-based. To be noted: for Monkey NPR1 Amax (% of ANP): maximum cGMP production as percentage of the maximum cGMP produced with ANP. In a few lines: as §1
The mark [3] stands for this setting: cGMP production, monkey NPR1 CHO-K1 cells, 30 min at 37° C., 12-point dose-response from 30 μM, read-out: Monkey NPR1 AC50.

monkey NPR1, sequence (A0A7N9DBT9 entry or part of it): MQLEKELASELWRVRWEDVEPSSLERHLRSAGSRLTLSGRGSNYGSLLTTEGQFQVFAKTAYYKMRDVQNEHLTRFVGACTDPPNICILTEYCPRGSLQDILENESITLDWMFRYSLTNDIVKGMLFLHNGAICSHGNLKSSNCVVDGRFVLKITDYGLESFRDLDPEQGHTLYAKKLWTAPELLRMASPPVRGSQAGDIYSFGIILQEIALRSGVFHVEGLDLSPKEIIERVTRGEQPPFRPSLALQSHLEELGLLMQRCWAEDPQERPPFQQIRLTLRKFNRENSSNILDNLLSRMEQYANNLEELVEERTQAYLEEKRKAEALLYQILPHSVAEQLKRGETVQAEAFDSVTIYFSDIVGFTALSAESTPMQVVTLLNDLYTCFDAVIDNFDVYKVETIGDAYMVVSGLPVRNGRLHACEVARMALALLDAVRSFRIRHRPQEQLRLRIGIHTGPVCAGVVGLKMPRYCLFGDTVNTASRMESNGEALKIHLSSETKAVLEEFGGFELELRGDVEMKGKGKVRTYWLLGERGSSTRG

For `CC[C@@H](Nc1nc2c(c(N[C@@H](CN3CCCCC3)c3cnn(C)c3)n1)CN(c1cccc(F)c1)CC2)[C@H]1CC[C@H](C(=O)O)CC1` [Compound 55], in test [1], the AC50 was found to be 194 nM and the “Human NPR1 Amax (% of ANP)” value was 92.712 % of ANP. Further, in test [2] (setting [3]), the AC50 turned out to be 142 nM. The “Monkey NPR1 Amax (% of ANP)” value in test [2] (monkey NPR1 CHO-K1 cells) is on record as 93.391 % of ANP.
Regarding `CC[C@@H](Nc1nc2c(c(N[C@@H](CN3CCCCC3)c3cnn(C)c3)n1)C[C@H](c1ccccc1)CC2)[C@H]1CC[C@H](C(=O)O)CC1` [Compound 56, (1R,4r)-4-((R)-1-(((R)-4-(((R)-1-(1-methyl-1H-pyrazol-4-yl)-2-(piperidin-1-yl)ethyl)amino)-6-phenyl-5,6,7,8-tetrahydroquinazolin-2-yl)amino)propyl)cyclohexane-1-carboxylic acid], in test [1], the activity was half-maximal at 198 nM (AC50) and the “Human NPR1 Amax (% of ANP)” value is 102.955 % of ANP. Further, in test [2] (setting [3]), the AC50 came to 196 nM. For the same molecule, the “Monkey NPR1 Amax (% of ANP)” value in test [2] (monkey NPR1 CHO-K1 cells) is reported as 108.953 % of ANP.
Consider `CC[C@H]([C@H]1CC[C@H](C(=O)O)CC1)N(C)c1nc2c(c(N[C@@H](CN3C4CCC3CC4)c3cnn(C)c3)n1)C[C@H](c1cccc(F)c1)CC2` [Compound 57, (1R,4r)-4-((R)-1-(((R)-4-(((R)-2-(7-azabicyclo[2.2.1]heptan-7-yl)-1-(1-methyl-1H-pyrazol-4-yl)ethyl)amino)-6-(3-fluorophenyl)-5,6,7,8-tetrahydroquinazolin-2-yl)(methyl)amino)propyl)cyclohexane-1-carboxylic acid], for which, in test [1], the AC50 turned out to be 199 nM and the “Human NPR1 Amax (% of ANP)” value is 101.340 % of ANP. In addition, the half-maximal activity concentration (AC50) in test [2] was 82 nM. The “Monkey NPR1 Amax (% of ANP)” value in test [2] (monkey NPR1 CHO-K1 cells) was 103.000 % of ANP.
Regarding `CC[C@@H](Nc1nc2c(c(N[C@@H](CN3CC4CCC3C4)c3cnn(C)c3)n1)C[C@H](c1ccccc1)CC2)[C@H]1CC[C@H](C(=O)O)CC1` (stereo partly drawn) [Compound 58, (1R,4r)-4-((1R)-1-(((6R)-4-(((1R)-2-(2-azabicyclo[2.2.1]heptan-2-yl)-1-(1-methyl-1H-pyrazol-4-yl)ethyl)amino)-6-phenyl-5,6,7,8-tetrahydroquinazolin-2-yl)amino)propyl)cyclohexane-1-carboxylic acid], in test [1], the AC50 came to 201 nM and the “Human NPR1 Amax (% of ANP)” value is recorded as 99.715 % of ANP. For the same molecule, in test [2] (setting [3]), the AC50 amounted to 149 nM. Besides, the “Monkey NPR1 Amax (% of ANP)” value in test [2] (monkey NPR1 CHO-K1 cells) was 95.422 % of ANP.
With `CC[C@@H](Nc1nc2c(c(N[C@@H](CN3C4CCCC3CCC4)c3cnn(C)c3)n1)C[C@H](c1ccccc1)CC2)[C@H]1CC[C@H](C(=O)O)CC1` [Compound 59, (1R,4r)-4-((R)-1-(((R)-4-(((R)-2-((1S,5S)-9-azabicyclo[3.3.1]nonan-9-yl)-1-(1-methyl-1H-pyrazol-4-yl)ethyl)amino)-6-phenyl-5,6,7,8-tetrahydroquinazolin-2-yl)amino)propyl)cyclohexane-1-carboxylic acid], in test [1], the activity was half-maximal at 205 nM (AC50) and the “Human NPR1 Amax (% of ANP)” value is listed as 99.614 % of ANP. Half-maximal activity in test [2] (AC50) was put at 153 nM. In addition, the “Monkey NPR1 Amax (% of ANP)” value in test [2] (monkey NPR1 CHO-K1 cells) was 104.401 % of ANP.
On the same counts, the results for `CC[C@@H](Nc1nc2c(c(N[C@@H](CN3C4CCCC3CC4)c3cnn(C)c3)n1)C[C@H](c1ccccc1)CC2)[C@H]1CC[C@H](C(=O)O)CC1` [Compound 60, (1R,4r)-4-((1R)-1-(((6R)-4-(((1R)-2-(8-azabicyclo[3.2.1]octan-8-yl)-1-(1-methyl-1H-pyrazol-4-yl)ethyl)amino)-6-phenyl-5,6,7,8-tetrahydroquinazolin-2-yl)amino)propyl)cyclohexane-1-carboxylic acid] are 205 nM, 93.233 % of ANP, 99 nM and 106.189 % of ANP.
Regarding `CC[C@@H](Nc1nc2c(c(N[C@@H](CN3C[C@H](C)C[C@H](C)C3)c3cnn(C)c3)n1)C[C@H](c1ccccc1)CC2)[C@H]1CC[C@H](C(=O)O)CC1` [Compound 61, (1R,4r)-4-((R)-1-(((R)-4-(((R)-2-((3S,5R)-3,5-dimethylpiperidin-1-yl)-1-(1-methyl-1H-pyrazol-4-yl)ethyl)amino)-6-phenyl-5,6,7,8-tetrahydroquinazolin-2-yl)amino)propyl)cyclohexane-1-carboxylic acid], in test [1], the AC50 was determined as 207 nM and the “Human NPR1 Amax (% of ANP)” value was 104.236 % of ANP. Moreover, in test [2] (setting [3]), the AC50 is 122 nM. The “Monkey NPR1 Amax (% of ANP)” value in test [2] (monkey NPR1 CHO-K1 cells) is given as 102.127 % of ANP.
In the case of `CC[C@H]([C@H]1CC[C@H](C(=O)O)CC1)N(C)c1nc2c(c(N[C@@H](CN3C4CCCC3CC4)c3cnn(C)c3)n1)C[C@H](c1ccccc1F)CC2` [Compound 62, (1R,4r)-4-((1R)-1-(((6R)-4-(((1R)-2-(8-azabicyclo[3.2.1]octan-8-yl)-1-(1-methyl-1H-pyrazol-4-yl)ethyl)amino)-6-(2-fluorophenyl)-5,6,7,8-tetrahydroquinazolin-2-yl)(methyl)amino)propyl)cyclohexane-1-carboxylic acid], the AC50 in test [1] amounted to 207 nM; in test [2], 133 nM. The “Human NPR1 Amax (% of ANP)” value in test [1] is 94.244 % of ANP. In test [2] (monkey NPR1 CHO-K1 cells), the “Monkey NPR1 Amax (% of ANP)” value is on record as 103.497 % of ANP.
On to `CC[C@H]([C@H]1CC[C@H](C(=O)O)CC1)N(C)c1nc2c(c(N[C@@H](CN3C4CCC3CC4)c3cnn(C)c3)n1)C[C@H](c1ccc(F)cc1)CC2` [Compound 63, (1R,4r)-4-((R)-1-(((R)-4-(((R)-2-(7-azabicyclo[2.2.1]heptan-7-yl)-1-(1-methyl-1H-pyrazol-4-yl)ethyl)amino)-6-(4-fluorophenyl)-5,6,7,8-tetrahydroquinazolin-2-yl)(methyl)amino)propyl)cyclohexane-1-carboxylic acid], for which the AC50 worked out at 210 nM in test [1] and 196 nM in test [2]. In test [1], the “Human NPR1 Amax (% of ANP)” value is listed as 100.629 % of ANP. The “Monkey NPR1 Amax (% of ANP)” value in test [2] (monkey NPR1 CHO-K1 cells) is recorded as 99.684 % of ANP.
Consider `CC[C@@H](Nc1nc2c(c(N[C@@H](CN3CCCC[C@H]3C)c3cnn(CC)c3)n1)C[C@H](c1ccccc1)CC2)[C@H]1CC[C@H](C(=O)O)CC1` [Compound 64, (1R,4r)-4-((R)-1-(((R)-4-(((R)-1-(1-ethyl-1H-pyrazol-4-yl)-2-((R)-2-methylpiperidin-1-yl)ethyl)amino)-6-phenyl-5,6,7,8-tetrahydroquinazolin-2-yl)amino)propyl)cyclohexane-1-carboxylic acid], for which, in test [1], the activity was half-maximal at 213 nM (AC50) and the “Human NPR1 Amax (% of ANP)” value is reported as 93.045 % of ANP. The AC50 in test [2] (setting [3]) was 175 nM. In addition, the “Monkey NPR1 Amax (% of ANP)” value in test [2] (monkey NPR1 CHO-K1 cells) is recorded as 92.911 % of ANP.
As to `CC[C@@H](Nc1nc2c(c(N[C@@H](CN3C4CCCC3CCC4)c3cnn(CC)c3)n1)C[C@H](c1ccccc1)CC2)[C@H]1CC[C@H](C(=O)O)CC1` [Compound 65, (1R,4r)-4-((R)-1-(((R)-4-(((R)-2-((1S,5S)-9-azabicyclo[3.3.1]nonan-9-yl)-1-(1-ethyl-1H-pyrazol-4-yl)ethyl)amino)-6-phenyl-5,6,7,8-tetrahydroquinazolin-2-yl)amino)propyl)cyclohexane-1-carboxylic acid], in test [1], the AC50 was 217 nM and the “Human NPR1 Amax (% of ANP)” value is 106.664 % of ANP. This molecule also returned an AC50 in test [2] of 128 nM. Besides, the “Monkey NPR1 Amax (% of ANP)” value in test [2] (monkey NPR1 CHO-K1 cells) is recorded as 99.329 % of ANP.
Consider `CC[C@H]([C@H]1CC[C@H](C(=O)O)CC1)N(C)c1nc2c(c(N[C@@H](CN3CCCCC3)c3cnn(C)c3)n1)C[C@](C)(c1ccccc1)CC2` [Compound 66, (1R,4r)-4-((R)-1-(methyl((R)-6-methyl-4-(((R)-1-(1-methyl-1H-pyrazol-4-yl)-2-(piperidin-1-yl)ethyl)amino)-6-phenyl-5,6,7,8-tetrahydroquinazolin-2-yl)amino)propyl)cyclohexane-1-carboxylic acid], for which the AC50 in test [1] turned out to be 219 nM; in test [2] (setting [3]) it was 123 nM. In addition, the “Human NPR1 Amax (% of ANP)” value in test [1] is 96.868 % of ANP. Also, the “Monkey NPR1 Amax (% of ANP)” value in test [2] (monkey NPR1 CHO-K1 cells) was 98.088 % of ANP.

In general, AC50 refers to the midpoint of the concentration-response curve, whichever way the signal moves.

The values are drawn from US12129246B1, “Hydroquinazoline derivatives for the treatment of a disease or disorder” (Novartis AG, priority 2023, dated 2024).
